Test results as given in US8933224B2, “Triazine derivatives” (Pfizer Inc., priority 2013, dated 2015).
pIC50: −log10 of the molar value.

Target: rat PDE10 enzyme (Rattus norvegicus (Rat), UniProt Q9QYJ6)
Experiment: PDE10 scintillation proximity assay (SPA), inhibition of rat PDE10 enzyme activity
Assay type: biochemical
Details: geometric mean of 2-4 determinations unless otherwise indicated (b: ≧5 determinations; c: single determination)
Experimental: PDE10 activity was measured using a scintillation assay (SPA-based method) similar to that previously described by Seeger, T. F. et al., Brain Research 985 (2003) 113-126. The compounds' relative activity as PDE10 inhibitors was investigated by assaying a fixed amount of enzyme in the presence of the test compound and low substrate concentration (cAMP) such that an IC50 could be determined. […] The assay is performed in a 384-well format with 50 μL assay buffer (50 mM TRIS pH 7.5; 1.3 mM MgCl2; 0.01% Brij) containing enough PDE10 to convert ˜20% of 20 nM ^3H-cAMP, and a range of inhibitors. Reactions are incubated for 30 minutes at 25° C. The addition of 20 μL of 8 mg/ml yttrium silicate SPA beads (PerkinElmer) stops the reaction. The plates are sealed (TopSeal, PerkinElmer) and the beads are allowed to settle for 8 hrs, after which they are read on the Trilux Microbeta overnight. ^1Rat enzyme preparation:^2Human enzyme preparation:
The recombinant Bacmid was isolated and used to transfect sf9 insect cells to generate a viral stock. To generate cell paste for purification, sf21 cells were infected with the virus stock and cells were harvested 72 hours after infection as described in Seeger, T. F. et al., Brain Research 985 (2003) 113-126. Insect cell paste was lysed and after centrifugation, the supernatant was chromatographed on Ni-NTA agarose (Qiagen) followed by Mono Q (GE Healthcare Life Sciences) as described in Seeger, T. F. et al., Brain Research 985 (2003) 113-126.

Sequence of rat PDE10 enzyme (Q9QYJ6 24-794): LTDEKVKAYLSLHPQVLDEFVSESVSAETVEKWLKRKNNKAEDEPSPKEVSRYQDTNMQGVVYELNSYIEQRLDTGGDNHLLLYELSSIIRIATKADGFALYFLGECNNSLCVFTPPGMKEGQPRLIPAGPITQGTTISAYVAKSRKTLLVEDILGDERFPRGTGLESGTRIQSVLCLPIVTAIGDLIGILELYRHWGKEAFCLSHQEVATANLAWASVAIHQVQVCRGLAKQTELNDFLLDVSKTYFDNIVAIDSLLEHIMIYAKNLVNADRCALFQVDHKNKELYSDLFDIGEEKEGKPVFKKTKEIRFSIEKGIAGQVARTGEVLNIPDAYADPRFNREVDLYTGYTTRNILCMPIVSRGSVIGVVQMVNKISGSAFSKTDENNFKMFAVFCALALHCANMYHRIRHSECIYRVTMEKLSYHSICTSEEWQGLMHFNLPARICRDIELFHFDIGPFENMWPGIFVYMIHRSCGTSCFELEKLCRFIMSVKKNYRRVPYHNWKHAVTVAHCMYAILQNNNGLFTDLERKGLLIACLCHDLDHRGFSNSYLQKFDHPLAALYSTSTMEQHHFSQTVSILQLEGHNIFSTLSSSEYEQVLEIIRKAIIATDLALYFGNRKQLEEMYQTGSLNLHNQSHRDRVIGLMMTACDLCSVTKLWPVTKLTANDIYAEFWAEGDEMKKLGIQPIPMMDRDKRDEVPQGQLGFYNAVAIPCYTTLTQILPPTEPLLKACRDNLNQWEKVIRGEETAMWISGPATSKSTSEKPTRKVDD

| pIC50 | SMILES |
| --- | --- |
| 8.75 | Cc1nc(-c2ccccc2F)c2c(N3CCc4nc(C5CC5)oc4C3)ncnn12 [Example 53, 4-(2-cyclopropyl-6,7-dihydro[1,3]oxazolo[5,4-c]pyridin-5(4H)-yl)-5-(2-fluorophenyl)-7-methylimidazo[5,1-f][1,2,4]triazine] |
| 8.34 | Cc1nc(CC(C)C)c2c(N3CCc4nc(C5CC5)oc4C3)ncnn12 [Example 54, 4-(2-cyclopropyl-6,7-dihydro[1,3]oxazolo[5,4-c]pyridin-5(4H)-yl)-5-isobutyl-7-methylimidazo[5,1-f][1,2,4]triazine] |
| 8.66 | Cc1nc(CC(C)C)c2c(N3CCc4nc(C5CC5)ncc4C3)ncnn12 [Example 55, 2-cyclopropyl-6-(5-isobutyl-7-methylimidazo[5,1-f][1,2,4]triazin-4-yl)-5,6,7,8-tetrahydropyrido[4,3-d]pyrimidine] |
| 8.27 | Cc1nc([C@H]2CCOC2)c2c(N3CCc4nc(C5CC5)ncc4C3)ncnn12 [Example 56, 2-cyclopropyl-6-{7-methyl-5-[(3R)-tetrahydrofuran-3-yl]imidazo[5,1-f][1,2,4]triazin-4-yl}-5,6,7,8-tetrahydropyrido[4,3-d]pyrimidine] |
| 8.51 | COc1cc2c(cc1OC)CN(c1ncnn3c(C)nc(C4CCOCC4)c13)CC2 [Example 59, 6,7-dimethoxy-2-[7-methyl-5-(tetrahydro-2H-pyran-4-yl)imidazo[5,1-f][1,2,4]triazin-4-yl]-1,2,3,4-tetrahydroisoquinoline] |
| 8.87 | COc1ccc2c(c1OC)CN(c1ncnn3c(C)nc(C4CCOCC4)c13)CC2 [Example 60, 7,8-dimethoxy-2-[7-methyl-5-(tetrahydro-2H-pyran-4-yl)imidazo[5,1-f][1,2,4]triazin-4-yl]-1,2,3,4-tetrahydroisoquinoline] |
| > 8.45 | Cc1nc(C2CCOCC2)c2c(N3CCc4nc(C5CC5)ncc4C3)ncnn12 [Example 61, 2-cyclopropyl-6-[7-methyl-5-(tetrahydro-2H-pyran-4-yl)imidazo[5,1-f][1,2,4]triazin-4-yl]-5,6,7,8-tetrahydropyrido[4,3-d]pyrimidine] |
| 8.41 | COc1cc2c(cc1OC)CN(c1ncnn3c(C)nc(-c4ccccc4C)c13)CC2 [Example 62, 6,7-dimethoxy-2-[7-methyl-5-(2-methylphenyl)imidazo[5,1-f][1,2,4]triazin-4-yl]-1,2,3,4-tetrahydroisoquinoline] |
| 6.88 | Cc1nc([C@H]2CCOC2)c2c(N3CCc4ncncc4C3)ncnn12 [Example 63, 6-{7-methyl-5-[(3R)-tetrahydrofuran-3-yl]imidazo[5,1-f][1,2,4]triazin-4-yl}-5,6,7,8-tetrahydropyrido[4,3-d]pyrimidine] |
| 8.93 | COc1cc2c(cc1OC)CN(c1ncnn3c(C)nc(CC(C)C)c13)CC2 [Example 64, 2-(5-isobutyl-7-methylimidazo[5,1-f][1,2,4]triazin-4-yl)-6,7-dimethoxy-1,2,3,4-tetrahydroisoquinoline] |
| 8.53 | Cc1nc(-c2ccccc2F)c2c(N3CCc4cccnc4C3)ncnn12 [Example 65] |
| 8.59 | COc1ccc2c(n1)CCN(c1ncnn3c(C)nc(-c4ccccc4F)c13)C2 [Example 66, 6-[5-(2-fluorophenyl)-7-methylimidazo[5,1-f][1,2,4]triazin-4-yl]-2-methoxy-5,6,7,8-tetrahydro-1,6-naphthyridine] |
| 9.49 | Cc1nc(-c2ccccc2F)c2c(N3CCc4nc(N(C)C)ccc4C3)ncnn12 [Example 67, 6-[5-(2-fluorophenyl)-7-methylimidazo[5,1-f][1,2,4]triazin-4-yl]-N,N-dimethyl-5,6,7,8-tetrahydro-1,6-naphthyridin-2-amine] |
| 9.05 | COc1nccc2c1CN(c1ncnn3c(C)nc(-c4ccccc4F)c13)CC2 [Example 68, 2-[5-(2-fluorophenyl)-7-methylimidazo[5,1-f][1,2,4]triazin-4-yl]-8-methoxy-1,2,3,4-tetrahydro-2,7-naphthyridine] |
| 8.14 | COc1ccc2c(n1)CN(c1ncnn3c(C)nc(-c4ccccc4F)c13)CC2 [Example 69, 7-[5-(2-fluorophenyl)-7-methylimidazo[5,1-f][1,2,4]triazin-4-yl]-2-methoxy-5,6,7,8-tetrahydro-1,7-naphthyridine] |
| 8.17 | Cc1ccc2c(n1)CN(c1ncnn3c(C)nc(-c4ccccc4F)c13)CC2 [Example 73, 7-[5-(2-fluorophenyl)-7-methylimidazo[5,1-f][1,2,4]triazin-4-yl]-2-methyl-5,6,7,8-tetrahydro-1,7-naphthyridine] |
| 7.64 | Cc1nc2c(o1)CN(c1ncnn3c(C)nc([C@H]4CCOC4)c13)CC2 [Example 76, 7-methyl-4-(2-methyl-6,7-dihydro[1,3]oxazolo[5,4-c]pyridin-5(4H)-yl)-5-[(3R)-tetrahydrofuran-3-yl]imidazo[5,1-f][1,2,4]triazine] |
| 7.52 | COc1cc2c(cc1OC)CN(c1ncnn3c(C)nc(C4CCCO4)c13)CC2 (centres unmarked) [Example 77, 6,7-dimethoxy-2-[7-methyl-5-(tetrahydrofuran-2-yl)imidazo[5,1-f][1,2,4]triazin-4-yl]-1,2,3,4-tetrahydroisoquinoline] |
| 8.41 | Cc1nc([C@H]2CCCO2)c2c(N3CCc4noc(C5CC5)c4C3)ncnn12 [Example 78, 4-(3-cyclopropyl-6,7-dihydro[1,2]oxazolo[4,3-c]pyridin-5(4H)-yl)-7-methyl-5-[(2R)-tetrahydrofuran-2-yl]imidazo[5,1-f][1,2,4]triazine] |
| 7.95 | Cc1nc([C@H]2CCCO2)c2c(N3CCc4nc(C5CC5)ncc4C3)ncnn12 [Example 79] |
| 7.75 | CCc1nn(C)c2c1CN(c1ncnn3c(C)nc([C@H]4CCCO4)c13)CC2 [Example 80, 4-(3-ethyl-1-methyl-1,4,6,7-tetrahydro-5H-pyrazolo[4,3-c]pyridin-5-yl)-7-methyl-5-[(2R)-tetrahydrofuran-2-yl]imidazo[5,1-f][1,2,4]triazine] |
| 8.01 | Cc1nc2c(s1)CN(c1ncnn3c(C)nc([C@H]4CCCO4)c13)CC2 [Example 81] |
| 7.43 | COc1cc2c(cc1OC)CN(c1ncnn3c(C)nc([C@H]4CCCO4)c13)CC2 [Example 82, 6,7-dimethoxy-2-{7-methyl-5-[(2R)-tetrahydrofuran-2-yl]imidazo[5,1-f][1,2,4]triazin-4-yl}-1,2,3,4-tetrahydroisoquinoline] |
| 7.53 | COc1cc2c(cc1OC)CN(c1ncnn3c(C)nc([C@@H]4CCCO4)c13)CC2 [Example 83, 6,7-dimethoxy-2-{7-methyl-5-[(2S)-tetrahydrofuran-2-yl]imidazo[5,1-f][1,2,4]triazin-4-yl}-1,2,3,4-tetrahydroisoquinoline] |
| 8.09 | Cc1nn(C)c2c1CN(c1ncnn3c(C)nc([C@H]4CCOC4)c13)CC2 [Example 84, 4-(1,3-dimethyl-1,4,6,7-tetrahydro-5H-pyrazolo[4,3-c]pyridin-5-yl)-7-methyl-5-[(3R)-tetrahydrofuran-3-yl]imidazo[5,1-f][1,2,4]triazine] |
| 8.90 | COc1ccc2c(c1)CCN(c1ncnn3c(C)nc([C@H]4CCOC4)c13)C2 [Example 87, 6-methoxy-2-{7-methyl-5-[(3R)-tetrahydrofuran-3-yl]imidazo[5,1-f][1,2,4]triazin-4-yl}-1,2,3,4-tetrahydroisoquinoline] |
